Test results as given in ChEMBL document CHEMBL4373730, “Practical approaches to evaluating and optimizing brain exposure in early drug discovery” (Eur J Med Chem, 2019).

Legend:
[1] = Brain to plasma partition coefficient, Kp of the compound in rat; type: ADME, organism-based; conditions: brain and plasma
[2] = in vivo; conditions: rat, brain and plasma
Description: Unbound brain-to-plasma concentration ratio in rat

SMILES	Kp [1]	Kp uu [2]
CN1CCN(C2=Nc3cc(Cl)ccc3Nc3ccccc32)CC1 [CLOZAPINE]	8.5	0.9
Cc1nc2n(c(=O)c1CCN1CCC(c3noc4cc(F)ccc34)CC1)CCCC2 [RISPERIDONE]	8.5	0.9
CN(C)CCCN1c2ccccc2Sc2ccc(Cl)cc21 [CHLORPROMAZINE]	8.5	0.9

Second part, the compound after the results:

Kp [1]	Kp uu [2]	SMILES
8.5	0.9	OCCOCCN1CCN(C2=Nc3ccccc3Sc3ccccc32)CC1 [QUETIAPINE]
8.5	0.9	O=C(CCCN1CCC(O)(c2ccc(Cl)cc2)CC1)c1ccc(F)cc1 [HALOPERIDOL]
8.5	0.9	O=C1Cc2cc(CCN3CCN(c4nsc5ccccc45)CC3)c(Cl)cc2N1 [ZIPRASIDONE]
